Each compound was assayed against T1, human GlyT1c transporter (Homo sapiens, UniProt P48067) (assay: Radioligand binding assay using recombinant CHO cell membranes expressing human GlyT1). Details: radioligand binding to human GlyT1c transporter-expressing membranes.
T1 construct: expressed in transfected cells; host or cells: CHO cells (recombinant; line hGlyT1c_5_CHO is named for the uptake assay)
T1 sequence (P48067 1-706): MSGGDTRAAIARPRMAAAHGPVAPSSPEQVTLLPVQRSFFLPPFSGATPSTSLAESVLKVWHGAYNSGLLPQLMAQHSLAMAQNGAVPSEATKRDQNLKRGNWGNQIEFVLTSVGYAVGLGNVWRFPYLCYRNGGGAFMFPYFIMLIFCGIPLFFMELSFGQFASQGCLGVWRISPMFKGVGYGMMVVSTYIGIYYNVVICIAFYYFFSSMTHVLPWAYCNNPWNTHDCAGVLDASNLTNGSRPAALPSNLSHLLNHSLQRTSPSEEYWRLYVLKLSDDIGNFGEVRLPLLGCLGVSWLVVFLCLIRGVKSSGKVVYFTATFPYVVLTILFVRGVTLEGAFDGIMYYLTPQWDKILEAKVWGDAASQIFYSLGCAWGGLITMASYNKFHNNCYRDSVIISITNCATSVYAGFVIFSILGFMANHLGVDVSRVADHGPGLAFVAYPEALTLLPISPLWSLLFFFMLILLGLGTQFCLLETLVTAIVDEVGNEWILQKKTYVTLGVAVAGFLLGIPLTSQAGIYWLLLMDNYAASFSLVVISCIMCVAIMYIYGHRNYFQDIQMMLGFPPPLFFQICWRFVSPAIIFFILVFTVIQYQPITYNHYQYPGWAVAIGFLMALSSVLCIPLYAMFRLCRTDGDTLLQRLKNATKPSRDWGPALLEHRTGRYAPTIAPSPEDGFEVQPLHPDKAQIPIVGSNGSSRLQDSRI
Source text: 2. Radioligand binding assays using recombinant CHO cell membranes expressing human GlyT1: […]

Ki [nM] | SMILES
≤ 100 | Cc1cc(N[C@H]2CN(S(=O)(=O)c3cn(C)cn3)C[C@@H]2c2ccc(F)cc2)ccc1Cl [Example 743, (3R,4S)-N-(4-chloro-3-methylphenyl)-4-(4-fluorophenyl)-1-[(1-methyl-1H-imidazol-4-yl)sulfonyl]pyrrolidin-3-amine]
≤ 10 | Cn1cnc(S(=O)(=O)N2C[C@H](Nc3cccc(OCC(F)(F)F)c3)[C@@H](c3ccc(F)cc3)C2)c1 [Example 744, (3R,4S)-4-(4-fluorophenyl)-1-[(1-methyl-1H-imidazol-4-yl)sulfonyl]-N-[3-(2,2,2-trifluoroethoxy)phenyl]pyrrolidin-3-amine]
≤ 10 | Cn1cnc(S(=O)(=O)N2C[C@H](Nc3ccc(F)c(-c4ccncc4)c3)[C@@H](c3ccc(F)cc3)C2)c1 [Example 746, (3R,4S)-4-(4-fluorophenyl)-N-[4-fluoro-3-(pyridin-4-yl)phenyl]-1-[(1-methyl-1H-imidazol-4-yl)sulfonyl]pyrrolidin-3-amine]
≤ 10 | Cc1cc(N[C@H]2CN(S(=O)(=O)c3cn(C)cn3)C[C@@H]2c2ccc(F)cc2)ccc1F [Example 747, (3R,4S)-N-(4-fluoro-3-methylphenyl)-4-(4-fluorophenyl)-1-[(1-methyl-1H-imidazol-4-yl)sulfonyl]pyrrolidin-3-amine]
≤ 10 | Cn1cnc(S(=O)(=O)N2C[C@H](Nc3ccc(F)c(-c4cncnc4)c3)[C@@H](c3ccc(F)cc3)C2)c1 [Example 749, (3R,4S)-4-(4-fluorophenyl)-N-[4-fluoro-3-(pyrimidin-5-yl)phenyl]-1-[(1-methyl-1H-imidazol-4-yl)sulfonyl]pyrrolidin-3-amine]
≥ 10000 | Cc1nc(S(=O)(=O)N2C[C@H](Nc3ccc(F)c(F)c3)[C@@H](c3ccc(F)cc3)C2)cn1C [Example 755, (3R,4S)-N-(3,4-difluorophenyl)-1-[(1,2-dimethyl-1H-imidazol-4-yl)sulfonyl]-4-(4-fluorophenyl)pyrrolidin-3-amine]
≤ 10000 | Cc1nc(S(=O)(=O)N2C[C@H](Nc3ccc(F)c(C(F)(F)F)c3)[C@@H](c3ccc(F)cc3)C2)cn1C [Example 756, (3R,4S)-1-[(1,2-dimethyl-1H-imidazol-4-yl)sulfonyl]-4-(4-fluorophenyl)-N-[4-fluoro-3-(trifluoromethyl)phenyl]pyrrolidin-3-amine]
≤ 10000 | Cc1ncc(S(=O)(=O)N2C[C@H](Nc3ccc(F)c(C(F)(F)F)c3)[C@@H](c3ccc(F)cc3)C2)n1C [Example 758, (3R,4S)-1-[(1,2-dimethyl-1H-imidazol-5-yl)sulfonyl]-4-(4-fluorophenyl)-N-[4-fluoro-3-(trifluoromethyl)phenyl]pyrrolidin-3-amine]
> 10000 | Cc1nc(S(=O)(=O)N2C[C@H](Nc3cc(C(F)(F)F)c(Cl)cn3)[C@@H](c3ccc(F)cc3)C2)cn1C [Example 760, 5-chloro-N-[(3R,4S)-1-[(1,2-dimethyl-1H-imidazol-4-yl)sulfonyl]-4-(4-fluorophenyl)pyrrolidin-3-yl]-4-(trifluoromethyl)pyridin-2-amine]
≤ 100 | Cn1cnc(S(=O)(=O)N2C[C@H](Nc3nccc(C(F)(F)F)c3F)[C@@H](c3ccc(F)cc3)C2)c1 [Example 796, 3-fluoro-N-{(3R,4S)-4-(4-fluorophenyl)-1-[(1-methyl-1H-imidazol-4-yl)sulfonyl]pyrrolidin-3-yl}-4-(trifluoromethyl)pyridin-2-amine]
≤ 10 | Cn1cnc(S(=O)(=O)N2C[C@H](Nc3cc(OCC(F)(F)F)c(Cl)cn3)[C@@H](c3ccc(F)cc3)C2)c1 [Example 806, 5-chloro-N-{(3R,4S)-4-(4-fluorophenyl)-1-[(1-methyl-1H-imidazol-4-yl)sulfonyl]pyrrolidin-3-yl}-4-(2,2,2-trifluoroethoxy)pyridin-2-amine]
≤ 10 | Cn1cnc(S(=O)(=O)N2C[C@H](Nc3cc(OCC(F)(F)F)c(F)cn3)[C@@H](c3ccc(F)cc3)C2)c1 [Example 810, 5-fluoro-N-{(3R,4S)-4-(4-fluorophenyl)-1-[(1-methyl-1H-imidazol-4-yl)sulfonyl]pyrrolidin-3-yl}-4-(2,2,2-trifluoroethoxy)pyridin-2-amine]

Further lines, the compound ahead of its results:

SMILES | Ki [nM]
Cn1cnc(S(=O)(=O)N2C[C@H](NC(=O)NCc3ccccc3)[C@@H](c3ccc(F)cc3)C2)c1 [Example 742, 1-benzyl-3-{(3R,4S)-4-(4-fluorophenyl)-1-[(1-methyl-1H-imidazol-4-yl)sulfonyl]pyrrolidin-3-yl}urea] | ≤ 1000
Cn1cnc(S(=O)(=O)N2C[C@H](Nc3cc(-c4cccnc4)ccn3)[C@@H](c3ccc(F)cc3)C2)c1 [Example 750, N-{(3R,4S)-4-(4-fluorophenyl)-1-[(1-methyl-1H-imidazol-4-yl)sulfonyl]pyrrolidin-3-yl}-3,4'-bipyridin-2'-amine] | ≤ 100
Cn1cnc(S(=O)(=O)N2C[C@H](Nc3cc(-c4ccncc4)ccn3)[C@@H](c3ccc(F)cc3)C2)c1 [Example 751, N-{(3R,4S)-4-(4-fluorophenyl)-1-[(1-methyl-1H-imidazol-4-yl)sulfonyl]pyrrolidin-3-yl}-4,4'-bipyridin-2-amine] | ≤ 100
Cn1cnc(S(=O)(=O)N2C[C@H](Nc3ccc(Cl)c(C(F)(F)F)c3)[C@@H](c3cocn3)C2)c1 [Example 753] | ≤ 1000
Cn1cnc(S(=O)(=O)N2C[C@H](Nc3cccc(OCc4ccccc4)c3)[C@@H](c3ccccc3)C2)c1 [Example 773, (3R,4S)-N-[3-(benzyloxy)phenyl]-1-[(1-methyl-1H-imidazol-4-yl)sulfonyl]-4-phenylpyrrolidin-3-amine] | ≤ 100
Cn1cnc(S(=O)(=O)N2C[C@H](Nc3cc(OCc4ccccc4)ncn3)[C@@H](c3ccc(F)cc3)C2)c1 [Example 774, 6-(benzyloxy)-N-{(3R,4S)-4-(4-fluorophenyl)-1-[(1-methyl-1H-imidazol-4-yl)sulfonyl]pyrrolidin-3-yl}pyrimidin-4-amine] | ≤ 100
Cn1cnc(S(=O)(=O)N2C[C@H](Nc3cc(OCc4ccccc4)c(F)cn3)[C@@H](c3ccccc3)C2)c1 [Example 776, 4-(benzyloxy)-5-fluoro-N-{(3R,4S)-1-[(1-methyl-1H-imidazol-4-yl)sulfonyl]-4-phenylpyrrolidin-3-yl}pyridin-2-amine] | ≤ 10
Cn1cnc(S(=O)(=O)N2C[C@H](Nc3cc(OCC4CCNC4)ncn3)[C@@H](c3ccc(F)cc3)C2)c1 (stereo partly drawn) [Example 779, N-{(3R,4S)-4-(4-fluorophenyl)-1-[(1-methyl-1H-imidazol-4-yl)sulfonyl]pyrrolidin-3-yl}-6-(pyrrolidin-3-ylmethoxy)pyrimidin-4-amine] | ≤ 10000
Cn1cnc(S(=O)(=O)N2C[C@H](Nc3cc(OCC4CCCN4)ncn3)[C@@H](c3ccc(F)cc3)C2)c1 (stereo partly drawn) [Example 780, N-{(3R,4S)-4-(4-fluorophenyl)-1-[(1-methyl-1H-imidazol-4-yl)sulfonyl]pyrrolidin-3-yl}-6-(pyrrolidin-2-ylmethoxy)pyrimidin-4-amine] | ≤ 10000
Cn1cnc(S(=O)(=O)N2C[C@H](OCC(=O)NCC(F)F)[C@@H](c3ccc(F)cc3)C2)c1 [Example 797, N-(2,2-difluoroethyl)-2-({(3R,4S)-4-(4-fluorophenyl)-1-[(1-methyl-1H-imidazol-4-yl)sulfonyl]pyrrolidin-3-yl}oxy)acetamide] | ≤ 10000
Cn1cnc(S(=O)(=O)N2C[C@H](Nc3cccc(-c4ccccn4)c3)[C@@H](c3ccc(F)cc3)C2)c1 [Example 801, (3R,4S)-4-(4-fluorophenyl)-1-[(1-methyl-1H-imidazol-4-yl)sulfonyl]-N-[3-(pyridin-2-yl)phenyl]pyrrolidin-3-amine] | ≤ 10
Cn1cnc(S(=O)(=O)N2C[C@H](Nc3cccc(-c4ccccn4)c3)[C@@H](c3ccccc3)C2)c1 [Example 802, (3R,4S)-1-[(1-methyl-1H-imidazol-4-yl)sulfonyl]-4-phenyl-N-[3-(pyridin-2-yl)phenyl]pyrrolidin-3-amine] | ≤ 100
Cn1cnc(S(=O)(=O)N2C[C@H](Nc3cc(OCC(F)(F)F)c(F)cn3)[C@@H](c3ccccc3)C2)c1 [Example 803, 5-fluoro-N-{(3R,4S)-1-[(1-methyl-1H-imidazol-4-yl)sulfonyl]-4-phenylpyrrolidin-3-yl}-4-(2,2,2-trifluoroethoxy)pyridin-2-amine] | ≤ 10
Cn1cnc(S(=O)(=O)N2C[C@H](Nc3cc(OCC(F)(F)F)ccn3)[C@@H](c3ccc(F)cc3)C2)c1 [Example 807, N-{(3R,4S)-4-(4-fluorophenyl)-1-[(1-methyl-1H-imidazol-4-yl)sulfonyl]pyrrolidin-3-yl}-4-(2,2,2-trifluoroethoxy)pyridin-2-amine] | ≤ 10

Same assay, conditions: radioligand binding, recombinant CHO cell membranes expressing human GlyT1c

Ki [nM] | SMILES
≤ 100 | CC(C)c1ccnc(N[C@H]2CN(S(=O)(=O)c3cn(C)cn3)C[C@@H]2c2ccccc2)c1 [Example 813, N-{(3R,4S)-1-[(1-methyl-1H-imidazol-4-yl)sulfonyl]-4-phenylpyrrolidin-3-yl}-4-(propan-2-yl)pyridin-2-amine]
≤ 1000 | Cn1cnc(S(=O)(=O)N2CC(Cc3cc(C(F)(F)F)ccn3)C(c3ccccc3)C2)c1 (stereo not shown) [Example 817, 2-({1-[(1-methyl-1H-imidazol-4-yl)sulfonyl]-4-phenylpyrrolidin-3-yl}methyl)-4-(trifluoromethyl)pyridine]

From patent publication EP2970215B1, “PYRROLIDINE DERIVATIVES, PHARMACEUTICAL COMPOSITIONS CONTAINING THEM, AND THEIR USE IN THERAPY” (AbbVie Deutschland GmbH & Co. KG, priority 2013, dated 2014)
